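Values below derive from 48-hour exposures of cells grown in 96-well plates, with endpoints linearly interpolated between the two concentrations bracketing the appropriate inhibition level. At the GI50, growth is halved.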 Activity calls are given as the source filed them. No stated cut-off is given here; in the data, active = GI50 up to about 1.1 µM and inactive = higher.
Key:
Experiment in all cases: inhibition of tumour cell growth, NCI panel, 48 h
NCI-H23 = tested on: NCI-H23
NCI-H226 = tested on: NCI-H226
ACHN = tested on: ACHN
TK-10 = tested on: TK-10
SW-620 = tested on: SW-620
CCRF-CEM = tested on: CCRF-CEM
SNB-75 = tested on: SNB-75
MDA-MB-231 = tested on: MDA-MB-231
SF-268 = tested on: SF-268
RPMI-8226 = tested on: RPMI-8226
M14 = tested on: M14
MDA-MB-435 = tested on: MDA-MB-435
SK-MEL-28 = tested on: SK-MEL-28
IGROV-1 = tested on: IGROV-1
MDA-N = tested on: MDA-N
HCT-15 = tested on: HCT-15
UACC-257 = tested on: UACC-257
SF-295 = tested on: SF-295
HOP-92 = tested on: HOP-92
COLO 205 = tested on: COLO 205

SMILES	GI50 (NCI-H23)	GI50 (NCI-H226)	GI50 (ACHN)	GI50 (TK-10)	GI50 (SW-620)	GI50 (CCRF-CEM)	GI50 (SNB-75)	GI50 (MDA-MB-231)	GI50 (SF-268)	GI50 (RPMI-8226)	GI50 (M14)	GI50 (MDA-MB-435)	GI50 (SK-MEL-28)	GI50 (IGROV-1)	GI50 (MDA-N)	GI50 (HCT-15) [µM]	GI50 (UACC-257)	GI50 (SF-295)	GI50 (HOP-92)	GI50 (COLO 205)
O=C(/N=N/c1ccc(Cl)cc1Cl)NNc1ccc(Cl)cc1Cl	17.1 µM (inactive)	19 µM (inactive)	16.6 µM (inactive)	24.3 µM (inactive)	21.3 µM (inactive)	20.2 µM (inactive)	31.6 µM (inactive)	20.7 µM (inactive)	30.1 µM (inactive)	19 µM (inactive)	> 10 µM (inactive)	16.1 µM (inactive)	20.7 µM (inactive)	27 µM (inactive)	16.2 µM (inactive)	19.6	19.6 µM (inactive)	–	–	–
COc1cccc(/N=N/C(=N/NC(=O)c2ccc(C)cc2)c2ccc(N(CCC#N)CCC#N)cc2OC)c1	> 100 µM (inactive)	> 100 µM (inactive)	> 100 µM (inactive)	8.05 µM (inactive)	> 100 µM (inactive)	> 100 µM (inactive)	–	> 100 µM (inactive)	> 100 µM (inactive)	> 100 µM (inactive)	> 100 µM (inactive)	> 100 µM (inactive)	> 100 µM (inactive)	> 100 µM (inactive)	> 100 µM (inactive)	> 100	7.14 µM (inactive)	59 µM (inactive)	> 100 µM (inactive)	> 100 µM (inactive)
O=C(/C=C/c1ccc(Cl)cc1)c1ccc(Cl)s1	38.9 µM (inactive)	–	87.3 µM (inactive)	85.3 µM (inactive)	22 µM (inactive)	27 µM (inactive)	39 µM (inactive)	60.7 µM (inactive)	72.1 µM (inactive)	17.8 µM (inactive)	44.1 µM (inactive)	> 10 µM (inactive)	50.1 µM (inactive)	49.2 µM (inactive)	28.4 µM (inactive)	60.3	> 100 µM (inactive)	78.3 µM (inactive)	82.4 µM (inactive)	70.8 µM (inactive)
Nc1ccn(C2OC(C(OC3OC(CO)C(O)C(N)C3O)C(O)C(O)C(O)C(O)CO)C(N)C(O)C2O)c(=O)n1 (stereo not given)	> 100 µM (inactive)	–	21.7 µM (inactive)	85.9 µM (inactive)	> 100 µM (inactive)	> 100 µM (inactive)	–	6.44 µM (inactive)	11 µM (inactive)	> 100 µM (inactive)	44 µM (inactive)	> 100 µM (inactive)	> 100 µM (inactive)	30.7 µM (inactive)	> 100 µM (inactive)	36.3	> 100 µM (inactive)	13.1 µM (inactive)	3.78 µM (inactive)	> 100 µM (inactive)
CC[C@H](C)C1=C(OC(C)=O)[N@+]2([O-])Oc3ccc(-c4c(O)c(O)c(-c5ccc(OC(C)=O)cc5)c(OC(C)=O)c4OC(C)=O)cc3O[C@]2([C@@H](C)CC)C(=O)N1O	29.8 µM (inactive)	–	14.9 µM (inactive)	20.4 µM (inactive)	11.1 µM (inactive)	–	–	17.8 µM (inactive)	18.8 µM (inactive)	7.85 µM (inactive)	28.2 µM (inactive)	27.1 µM (inactive)	27 µM (inactive)	17 µM (inactive)	23.2 µM (inactive)	19.2	> 50 µM (inactive)	22.8 µM (inactive)	3.84 µM (inactive)	19.8 µM (inactive)
O=C(O)c1ccc2[nH]c(=O)oc2c1	> 100 µM (inactive)	> 100 µM (inactive)	> 100 µM (inactive)	> 100 µM (inactive)	> 100 µM (inactive)	> 100 µM (inactive)	> 100 µM (inactive)	> 100 µM (inactive)	> 100 µM (inactive)	> 100 µM (inactive)	> 100 µM (inactive)	> 100 µM (inactive)	> 100 µM (inactive)	> 100 µM (inactive)	> 100 µM (inactive)	> 100	> 100 µM (inactive)	> 100 µM (inactive)	–	> 100 µM (inactive)
CC[C@H](C)C1=C(O)[N@+]2([O-])Oc3ccc(-c4c(O)c(O)c(-c5ccc(OC(C)=O)cc5)c(OC(C)=O)c4OC(C)=O)cc3O[C@]2([C@@H](C)CC)C(=O)N1O	> 50 µM (inactive)	–	26.3 µM (inactive)	25.5 µM (inactive)	10.7 µM (inactive)	10.3 µM (inactive)	–	21.9 µM (inactive)	33.3 µM (inactive)	12.8 µM (inactive)	27.6 µM (inactive)	27.9 µM (inactive)	33 µM (inactive)	8.85 µM (inactive)	34 µM (inactive)	19.7	> 50 µM (inactive)	21.6 µM (inactive)	11.6 µM (inactive)	16.3 µM (inactive)
Cc1ccsc1/C(S)=N\c1ccc(Cl)c(/C=N/OC(C)(C)C)c1	24.7 µM (inactive)	24.7 µM (inactive)	24.5 µM (inactive)	16.6 µM (inactive)	35.3 µM (inactive)	24.2 µM (inactive)	–	21.2 µM (inactive)	> 100 µM (inactive)	26.4 µM (inactive)	39 µM (inactive)	53.3 µM (inactive)	28.1 µM (inactive)	28.9 µM (inactive)	43.1 µM (inactive)	31.2	17.2 µM (inactive)	28.1 µM (inactive)	18 µM (inactive)	16.3 µM (inactive)
COCCCN(Cc1cc(OC)c(OC)c(OC)c1)C(=S)Nc1cccc(Cl)c1	–	–	28.6 µM (inactive)	47 µM (inactive)	31.8 µM (inactive)	25.3 µM (inactive)	25.3 µM (inactive)	26 µM (inactive)	19.9 µM (inactive)	14.9 µM (inactive)	23.7 µM (inactive)	20.9 µM (inactive)	27.5 µM (inactive)	34.4 µM (inactive)	19.2 µM (inactive)	16.7	19.6 µM (inactive)	31.8 µM (inactive)	20.2 µM (inactive)	33.8 µM (inactive)
COc1ccc2c(c1)CCC1=CC3(CCC12C)SCCS3 (stereo not given)	6.82 µM (inactive)	–	5.3 µM (inactive)	> 10 µM (inactive)	4.56 µM (inactive)	3.97 µM (inactive)	0.649 µM (active)	4.08 µM (inactive)	3.13 µM (inactive)	3.5 µM (inactive)	4.46 µM (inactive)	3.74 µM (inactive)	5.24 µM (inactive)	6.19 µM (inactive)	2.59 µM (inactive)	6.38	> 10 µM (inactive)	3.87 µM (inactive)	4.97 µM (inactive)	4.73 µM (inactive)
CCCCNC(=S)N/C=C1\C(=O)Oc2ccccc2C1=O	88.5 µM (inactive)	> 100 µM (inactive)	31.4 µM (inactive)	> 100 µM (inactive)	41.7 µM (inactive)	–	2.69 µM (inactive)	73.8 µM (inactive)	–	–	76.6 µM (inactive)	61 µM (inactive)	77.8 µM (inactive)	35.4 µM (inactive)	64 µM (inactive)	48	> 100 µM (inactive)	> 100 µM (inactive)	> 100 µM (inactive)	> 100 µM (inactive)
O=C(c1ccccc1)c1ccc2c(c1)NC(=O)c1ccccc1SSc1ccccc1C(=O)N2	> 100 µM (inactive)	> 100 µM (inactive)	> 100 µM (inactive)	> 100 µM (inactive)	> 100 µM (inactive)	> 100 µM (inactive)	–	> 100 µM (inactive)	> 100 µM (inactive)	> 100 µM (inactive)	> 100 µM (inactive)	> 100 µM (inactive)	> 100 µM (inactive)	> 100 µM (inactive)	> 100 µM (inactive)	> 100	> 100 µM (inactive)	> 100 µM (inactive)	> 100 µM (inactive)	> 100 µM (inactive)
Cn1cnc(N2CCCC2)c(C#N)c1=O	> 100 µM (inactive)	> 100 µM (inactive)	> 100 µM (inactive)	> 100 µM (inactive)	> 100 µM (inactive)	> 100 µM (inactive)	–	> 100 µM (inactive)	> 100 µM (inactive)	> 100 µM (inactive)	> 100 µM (inactive)	> 100 µM (inactive)	> 100 µM (inactive)	> 100 µM (inactive)	> 100 µM (inactive)	> 100	> 100 µM (inactive)	> 100 µM (inactive)	> 100 µM (inactive)	> 100 µM (inactive)
CCOC(=O)N1CCN(c2c(C)nc(C)nc2O)CC1	> 100 µM (inactive)	> 100 µM (inactive)	> 100 µM (inactive)	> 100 µM (inactive)	> 100 µM (inactive)	> 100 µM (inactive)	–	> 100 µM (inactive)	> 100 µM (inactive)	> 100 µM (inactive)	> 100 µM (inactive)	> 100 µM (inactive)	> 100 µM (inactive)	> 100 µM (inactive)	> 100 µM (inactive)	> 100	> 100 µM (inactive)	> 100 µM (inactive)	> 100 µM (inactive)	> 100 µM (inactive)
O=C1C=C2CCC[C@H]3OC(=O)C[C@@]23CC1	> 100 µM (inactive)	> 100 µM (inactive)	> 100 µM (inactive)	> 100 µM (inactive)	> 100 µM (inactive)	–	–	> 100 µM (inactive)	> 100 µM (inactive)	> 100 µM (inactive)	> 100 µM (inactive)	> 100 µM (inactive)	> 100 µM (inactive)	> 100 µM (inactive)	> 100 µM (inactive)	> 100	> 100 µM (inactive)	> 100 µM (inactive)	> 100 µM (inactive)	> 100 µM (inactive)
